Counter-ions that a name gives are not always drawn.
How the values were obtained:
[1] = molecular target: T1, cannabinoid receptor 1 (CB1) (Rattus norvegicus, UniProt P20272); assay: Determination of affinity for cannabinoid receptor 1 (CB1) ([3H] WIN55,212-2 binding, rat cerebellum membranes); set-up: species or system Sprague Dawley rats; conditions: method (c)
T1 construct: Tissue: rat cerebellum; from tissue; host or cells: rat cerebellum membranes
From the text: (c) Determination of Affinity for Cannabinoid Receptor 1 (CB1)
The method was developed on the basis of the publication of D'Ambra et al, J. Med. Chem. 35, 124-135 (1992), but at variance therewith the ligand stated below is used. The disclosure of this article is hereby incorporated by reference.
• Sprague Dawley rats weighing between 150-350 g • (breeder: Charles River Deutschland, 32699 Extertal, Germany) • Ligand: [^3H] WIN55, 212-2; Perkin Elmer, item. no. NET 1058 • Ligand cold: WIN 55, 212-2 mesylate; Tocris; item. no. 1038 • HEPES: Sigma, item no. H-3375 • BSA: Sigma, item no. A-2153 • GF/B filter mats (Brandel Inc., cat. no. FP 100, size 2¼″×12¼″) • Ready Protein scintillating material (item no. 586604, Beckmann, 85716 Unterschlei ? heim) • Tissue: rat cerebellum • Tissue & incubation buffer: 20 mM HEPES pH 7.0. • Filtration buffer: 20 mM HEPES pH 7.0 containing 0.5 mg of BSA/ml which prevents adsorption. • Filter mat softening buffer: 20 mM HEPES pH 7.0 containing 5 mg of BSA/ml. B. Preparation of Cerebellum:
20 ml of ice-cooled buffer are used per 1 g of brain tissue. The brain tissue is disrupted within 30 seconds in the cold buffer with ice cooling at a rotational speed of 6000 rpm using a homogeniser from Kinematica, model Polytron PT-3000 with PT-DA-3012/2 drive unit. The resultant homogenate is then diluted with cold buffer to a ratio of 100 ml/g of tissue. Centrifugation is then performed for 15 minutes at 49,000 g and 4° C. Once centrifugation is complete, the supernatants are decanted and the precipitates resuspended in fresh, cold buffer. Acceptable suspension of the pellets is obtained at only 1000 rpm in the homogeniser with ice cooling and a processing time of at most 60 seconds. This last centrifugation step is repeated twice more (in each case washed with 20 mM HEPES pH 7.0). The precipitated is then suspended with buffer in a ratio of 1:120 (weight/volume).
Incubation is performed for 90 minutes at room temperature, i.e. 25° C. The batches are then rapidly suction filtered with the assistance of the Brandel Cell Harvester (model M-24-R, Adi Hassel, 80809 Munich, Germany) through GF/B filter mats, which have previously been softened in HEPES buffer pH 7.0 containing 5 mg/ml of BSA, and rewashed with 20 ml of filtration buffer (ice-cooled). After transferring the filters into scintillation vials and adding a 10 ml portion of scintillation liquid (Ready Protein) to each and then leaving to stand for 15 hours, the samples are measured in the scintillation counter (Perkin Elmer, model Wallac 1409).

[2] = molecular target: T2, vanilloid receptor VR1 (capsaicin receptor) (Rattus norvegicus, UniProt O35433); assay: Determination of affinity for vanilloid receptor VR1 ([3H] resiniferatoxin binding, rat spinal cord membranes); set-up: species or system Sprague Dawley rats; conditions: method (a); 10 μM; read-out: % VR1 binding % inhibition at 10 μM [2]
T2 construct: isolated from the spinal cord of male Sprague Dawley rats (breeder: Charles River Deutschland, 32699 Extertal) and used for preparation of the membrane; from tissue; host or cells: rat spinal cord (cervical region and one third of the thoracic region) membranes
T2 sequence (O35433 whole entry): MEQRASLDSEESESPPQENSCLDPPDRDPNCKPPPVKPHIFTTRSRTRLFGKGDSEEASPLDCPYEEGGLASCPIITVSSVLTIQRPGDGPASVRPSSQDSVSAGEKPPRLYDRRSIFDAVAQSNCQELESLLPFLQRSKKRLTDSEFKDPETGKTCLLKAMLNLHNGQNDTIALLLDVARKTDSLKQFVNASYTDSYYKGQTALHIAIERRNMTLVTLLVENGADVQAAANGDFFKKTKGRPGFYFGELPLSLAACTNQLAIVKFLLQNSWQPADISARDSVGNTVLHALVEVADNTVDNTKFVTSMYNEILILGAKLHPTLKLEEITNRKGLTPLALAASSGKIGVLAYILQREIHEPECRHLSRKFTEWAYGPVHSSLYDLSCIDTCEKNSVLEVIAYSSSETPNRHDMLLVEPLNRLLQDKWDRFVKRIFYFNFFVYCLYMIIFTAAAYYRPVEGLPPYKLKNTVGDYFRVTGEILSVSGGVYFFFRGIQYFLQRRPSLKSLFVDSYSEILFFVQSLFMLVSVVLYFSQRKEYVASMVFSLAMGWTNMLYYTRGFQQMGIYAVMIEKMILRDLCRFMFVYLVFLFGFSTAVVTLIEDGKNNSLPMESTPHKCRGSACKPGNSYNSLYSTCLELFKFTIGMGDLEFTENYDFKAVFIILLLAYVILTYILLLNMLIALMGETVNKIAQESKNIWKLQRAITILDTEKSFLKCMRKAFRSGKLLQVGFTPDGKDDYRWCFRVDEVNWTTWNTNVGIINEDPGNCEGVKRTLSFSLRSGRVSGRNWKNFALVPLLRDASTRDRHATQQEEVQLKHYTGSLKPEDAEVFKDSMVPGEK
From the text: This method was developed on the basis of the publication by Acs et al., J. Neurochem. 65, 301-308 (1995). The corresponding description is hereby introduced as a reference and is deemed to be part of the disclosure.
• Sprague Dawley rats weighing between 150-300 g • (breeder: Charles River Deutschland, 32699 Extertal, Germany) • HEPES (item no. H-3375, SIGMA) • NaCl (item no. 6400.1000; Merck) • KCl (item no.: 4936.1000; Merck) • HCl (item no.: 1.00317; Merck) • [^3H] resiniferatoxin ([^3H] RTX) (item no.: NET-1132, Perkin-Elmer) • Resiniferatoxin (RTX, cold) (item no.: 550-179-M001, Alexis) • D-Glucose (item no.: 1.08337.1000, Merck) • Sucrose (item no.: S-9378, Sigma) • α1-acid glycoprotein (item no.: G-3643, Sigma) • BSA (bovine serum albumin, item no.: A-2153, Sigma) • GF/B filter mats (Brandel Inc., cat. no. FP 100, size: 2¼″×12¼″)
Buffer: (Concentration values in brackets in each case in mM)
• HEPES (10); KCl (5); NaCl (5.8); CaCl (0.75); MgCl (2.0); D-glucose (12); • sucrose (137). The pH value is adjusted at room temperature using 20% strength HCl. B. Preparation of Membranes
The cervical region and one third of the following thoracic region is isolated from the spinal cord of male Sprague Dawley rats (breeder: Charles River Deutschland, 32699 Extertal) and used for preparation of the membrane. After the combined tissue is weighed, it is homogenized in ice-cooled buffer of the above-stated composition. 20 ml of buffer were used per 1 g of tissue (1:20 weight/volume). Homogenisation performed with a homogeniser from Kinematica, model Polytron PT-3000 with PT-DA-3012/2 drive unit. The spinal cord tissue is disrupted within 60 seconds in the cold buffer with ice cooling at a rotational speed of 6000 rpm. The material is then centrifuged for 10 minutes at 1000 g and +4° C. and the resultant precipitate discarded. The […] in the same volume of buffer of the above-stated composition. The material is then centrifuged for 40 minutes at 48,000 g and +4° C. and the supernatant discarded. The resultant precipitate is resuspended in 30 ml of buffer of the above-stated composition and used in this form in the vanilloid receptor (VR1) assay.
Incubation is performed in the water bath for one hour at 37° C. The samples are then placed in an ice bath for 15 minutes. In order to minimise nonspecific adsorption of the RTX, 100 μg of α1-acid glycoprotein (in 50 μl of buffer) are added to each incubation tube. The samples are then thoroughly mixed on a vortex shaker and left to stand for 10 minutes. The batches are then filtered with the assistance of the model M-24R “Brandel Cell Harvester” through a GF/B glass fiber filter mat which has been presoftened in tris buffer. The filter is then rinsed through 3 times with 4 ml portions of ice-cold HEPES buffer of the above-stated composition for each sample. The filters are transferred into scintillation counter vessels, each is combined with a 10 ml portion of “Ready Protein” scintillating material, and the vessels are closed with screw caps. The vessels are shaken on the vortex shaker and left to stand for at least 15 hours in the fume cupboard. The samples are then measured on the β-counter (model 1409 Wallac, Perkin Elmer, 63110 Rogau-Jügesheim, Germany).

[3] = molecular target: T3, vanilloid receptor (VR1) (Rattus norvegicus, UniProt O35433); assay: Functional investigations on vanilloid receptor (VR1): Ca2+ influx FLIPR assay in CHO K1 cells stably transfected with the VR1 gene; assay type: cell-based, rats; conditions: for inhibition at 10 µM: CHO-K1, read-out: % Inhibition [1]; for % Activation [1]: method (b), substance 10 μM, relative to Ca2+ signal after 10 μM capsaicin, means from 4–5 measurements
T3 construct: expressed in transfected cells; host or cells: CHO K1 cells (ECACC)
T3 sequence (O35433 whole entry): as above
From the text: (b) Functional Investigations on Vanilloid Receptor (VR1)
The agonistic or antagonistic action of the substances to be investigated on the vanilloid receptor (VR1) may be determined with the following assay. According to this assay, the influx of Ca^2+ through the channel is quantified with the assistance of a Ca^2+-sensitive dye (type Fluo4, Molecular Probes Europe BV, Leiden, Netherlands) in a Fluorescent Imaging Plate Reader (FLIPR, Molecular Devices, Sunnyvale, USA).
Chinese hamster ovary cells (CHO K1 cells, European Collection of Cell Cultures (ECACC), Great Britain) are stably transfected with the VR1 gene. For functional investigations, these cells are plated out onto poly-D-lysine-coated, black 96 well plates with a clear bottom (BD Biosciences, Heidelberg, Germany) at a density of 25,000 cells/well. The cells are incubated overnight at 37° C. and 5% CO2 in a culture medium (Ham's Nutrient Mixture F12, 10 vol. % FCS (foetal calf serum), 18 μg/mL L-proline). On the following day, the cells are incubated with Fluo4 (Fluo4 2 μM, Pluronic F127 0.01 vol. %, Molecular Probes in HBSS (Hank's buffered saline solution), Gibco Invitrogen GmbH, Karlsruhe, Germany) for 30 minutes at 37° C. The plates are then washed 3 times with HBSS buffer and, after a further 15 minutes' incubation at room temperature, used for Ca^2+ measurement in the FLIPR. Ca^2+-dependent fluorescence is here measured before and after addition of the substances to be investigated (wavelength λex=488 nm, λem=540 nm). Quantification proceeds by measuring the highest fluorescence intensity (FC, fluorescence counts) over time.
The FLIPR protocol comprises 2 additions of substance. […] The percentage inhibition in comparison with the maximum achievable inhibition with 10 μM capsazepine is calculated.

T1 sequence (P20272 whole entry): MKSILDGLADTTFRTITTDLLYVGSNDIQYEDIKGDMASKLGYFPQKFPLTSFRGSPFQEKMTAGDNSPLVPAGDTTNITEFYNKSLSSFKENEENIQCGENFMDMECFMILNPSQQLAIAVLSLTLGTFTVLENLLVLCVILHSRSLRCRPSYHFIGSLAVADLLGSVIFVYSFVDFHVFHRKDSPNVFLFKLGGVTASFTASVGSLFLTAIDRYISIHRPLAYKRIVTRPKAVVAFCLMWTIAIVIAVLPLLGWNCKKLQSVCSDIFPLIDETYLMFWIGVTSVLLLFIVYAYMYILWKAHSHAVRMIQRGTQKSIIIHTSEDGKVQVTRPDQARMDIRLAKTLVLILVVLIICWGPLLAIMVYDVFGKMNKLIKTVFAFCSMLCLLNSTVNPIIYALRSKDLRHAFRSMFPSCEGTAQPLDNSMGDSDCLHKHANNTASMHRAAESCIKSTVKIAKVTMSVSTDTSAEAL

Structure (SMILES) | inhibition at 10 µM [1] | inhibition at 10 µM [2] | inhibition at 10 µM [3] | % Activation [1] [3]
Cc1cc(C)n2c(NC(C)(C)CC(C)(C)C)c(-c3ccsc3)nc2c1 [Example 1, (5,7-Dimethyl-2-thiophen-3-yl-imidazo[1,2-a]pyridin-3-yl)-(1,1,3,3-tetramethylbutyl)-amine hydrochloride] | 43% | 42.5% | – | –
CC(C)(C)CC(C)(C)Nc1c(-c2ccsc2)nc2ccccn12 [Example 2, (1,1,3,3-Tetramethylbutyl)-(2-thiophen-3-yl-imidazo-[1,2-a]pyridin-3-yl)amine hydrochloride] | 47% | 36% | 32.2% | –
Cc1ccn2c(NC(C)(C)CC(C)(C)C)c(-c3ccsc3)nc2c1.Cl [Example 3, (7-Methyl-2-thiophene-3-yl-imidazo[1,2-a]pyridin-3-yl)-(1,1,3,3-tetramethylbutyl)-amine hydrochloride] | 35.5% | – | 65% | 30.1%
CC(C)(C)CC(C)(C)Nc1c(-c2ccoc2)nc2ccccn12 [Example 4, (2-Furan-3-yl-imidazo[1,2-a]pyridin-3-yl)-(1,1,3,3-tetramethylbutyl)amine hydrochloride] | 35% | – | 44.1% | –
Cc1ccn2c(NC(C)(C)CC(C)(C)C)c(-c3ccoc3)nc2c1.Cl [Example 5, (2-Furan-3-yl-7-methyl-imidazo[1,2-a]pyridin-3-yl)-(1,1,3,3-tetramethylbutyl)amine hydrochloride] | 32.7% | – | 80.7% | 32.4%

— US7592351B2, “Substituted imidazo[1,2-a]pyridine compounds and pharmaceutical preparations containing substituted imidazo[1,2-a]pyridine compounds” (Gruenenthal GmbH, priority 2004, dated 2009)
